Test results reported in US7416893B2, “Methods for diagnosing drug-resistant cancer cells or for identifying chemotherapeutic agents by measuring anomalous intracellular ion and/or second messenger dynamics” (Atto Bioscience, priority 2002, dated 2008).
Marks after values point to notes of the source that are not given here.

Key:
MDA-MB-231 cells = assay: Single-cell fura-2 [Ca2+]i imaging, MDA-MB-231 wt cells; type: cell-based, human; conditions: for Fold [Ca2+]i increase evoked by agonist: mean ± S.E.M.
Source text: (§1) More specifically, human breast cancer cell (“bc”) lines were obtained from the following sources: wild type (“wt”), estrogen receptor-positive MCF-7 cells were obtained from three different sources: American Type Culture Collection (ATCC, Manassas, Va.), the Lombardi Cancer Center, Georgetown University (Washington, D.C.) and the National Cancer Institute, NIH (Bethesda, Md.) and will be referred to as “wt”, DS MCF-7 throughout the paper. Wild type, estrogen receptor-negative MDA-MB-231 cells were obtained from the Lombardi Cancer Center, Georgetown University. Five DR, MCF-7-derived clonal cell lines were used in this study. MCF-7/ADR (selected by exposure and resistance to adriamycin, a DNA intercalating agent and DNA topoisomerase II inhibitor; (Vickers, P. J. et al. Mol. Endocrinol. 2:886-892, 1988) were from the Lombardi Cancer Center, Georgetown University; MCF-7/C4 (selected, after mutagenesis, for resistance to camptothecin, a DNA topoisomerase I inhibitor) were obtained from Dr. Y. Pommier (NCI, NIH, Bethesda, Md.) (Fujimori, A. et al. Mol. Pharmacol. 50:1472-1478, 1996); MCF-7/VP cells (selected by exposure and resistance to VP-16 etoposide, a DNA topoisomerase II inhibitor; Schneider, E. et al. Cancer Res. 54:152-158, 1994) were obtained from Dr. E. Schneider, Wadsworth Center, New York State Dept. of Health, Albany, N.Y.; MCF-7/Melph cells (selected by exposure and resistance to melphalan, a DNA alkylating agent; Moscow, J A et al. Br. J. Cancer 68:732-737, 1993) were obtained from Dr. J. Moscow, University of Kentucky, Lexington, Ky.
(§2) For data mentioned below, [Ca^2+]1 was measured by single-cell fura-2 excitation ratio imaging as previously described (DeBernardi, M. A. et al. Mol Pharmacol 43:451-58, 1993). Cells, grown on 25 mm round, 1 mm-thick glass coverslips were loaded with cell-permeable fura-2 AM (5 uM; Molecular Probes, Eugene, Oreg.) at 37° C. in growth medium for 30-60 min. MCF-7/ADR, MCF-7/Ad-Vp, and C6-B and E cells were difficult to load with fura-2 AM, likely reflecting a high degree of dye extrusion (Homolya, L. et al. J Biol. Chem. 268:21493-96, 1993). […] Cells were then thoroughly washed with buffer H/H (Ham's F-10 nutrient mixture supplemented with 20 mM Na-HEPES, pH 7.4) and let sit for 10 min at room temperature to allow complete fura-2 AM de-esterification. Cells were imaged at room temperature in H/H buffer using an Attofluor RatioVision Digital Fluorescence Microscopy System (Atto Bioscience, Rockville, Md.) equipped with a Zeiss Axiovert 135 microscope and a F-Fluar 40×, 1.3 na, oil-immersion objective. Fura-2 was excited at 334 and 380 nm with the emission monitored at >510 nm; the 334/380 nm excitation ratio increases as a function of the [Ca^2+]1. Calibration was done in vitro with 10 uM fura-2 pentapotassium salt in the presence of 1 mM CaCl2 or 1 mM EGTA and the 334/380 nm excitation ratio was converted to [Ca^2+]1 nM values (Grynkiewicz et al J Biol Chem 260:3440-3450, 1985). For each coverslip, 10-99 cells were simultaneously imaged in a given microscopic field and [Ca^2+]1 was recorded from each individual cell in resting and stimulated conditions. Single Ca^2+ profiles were averaged to yield [Ca^2+]1 population means (±S.E.M.) that were plotted versus time. […]
(§3) Single cell Ca^2+ dynamics were monitored by single cell fluorescence digital imaging according to the method previously described by DeBernardi, M. A. et al. Mol Phamacol 43: 451-458 (1993). […]

MCF-7/ADR cells = assay: Single-cell fura-2 [Ca2+]i imaging, MCF-7/ADR drug-resistant cells; type: cell-based, human; conditions: for Fold [Ca2+]i increase evoked by agonist: mean ± S.E.M.
Method: (§6) Cells, grown on 25 mm round, 1 mm-thick glass coverslips were loaded with cell-permeable fura-2 AM (5 uM; Molecular Probes, Eugene, Oreg.) at 37° C. in growth medium for 30-60 min. […] Cells were then thoroughly washed with buffer H/H (Ham's F-10 nutrient mixture supplemented with 20 mM Na-HEPES, pH 7.4) and let sit for 10 min at room temperature to allow complete fura-2 AM de-esterification. […] For each coverslip, 10-99 cells were simultaneously imaged in a given microscopic field and [Ca^2+]1 was recorded from each individual cell in resting and stimulated conditions. Single Ca^2+ profiles were averaged to yield [Ca^2+]1 population means (±S.E.M.) that were plotted versus time.
(§7) Cells were grown as monolayers on glass supports and labeled with the cell-permeable fluorescent dye, Fura-2 (Molecular Probes, Inc.).
(§8) Basal [Ca^2+]1 levels and responses to ATP (50-100 uM), UTP (50-100 uM), BK (10 uM), THR (5 uM), or TG (1 uM) were studied in single cells. […] Ca^2+ responses were compared between pairs of DS and DR clones tested in parallel (MCF-7/ADR cells were compared to their parental wt, DS line obtained from Georgetown University; MCF-7/Ad-Vp cells were compared to the NIH wt, DS line; other DR clones were compared mainly with wt, DS MCF-7 cells from ATCC; C6 clones resistant to doxorubicin were compared to their wild type parental line.
(§9) Cells were labeled with Fura-2 and imaged. After 30-60 sec., the agonists were applied and calcium responses were recorded in single cells. The fold increase in [Ca^2+]1 were calculated and the average values from all the experiments were used in this table.
(§10) Cells were loaded with Fura-2 and imaged in the absence or presence of EGTA, which is a calcium chelator. Cells were challenged with ATP and Ca responses were recorded. The magnitude and decay t1/2 of the responses were calculated and the respective mean of all the experiments was compared.
(§11) DR and DS cells were then exposed to the modulators for 2 or 24 hr and challenged with ATP.

[1] = system: human breast cancer cells (DS and DR); assay: Single-cell fura-2 [Ca2+]i imaging, DS and DR human breast cancer cells (statements across lines); type: cell-based; conditions: for Effect on decay kinetics of ATP-evoked response: 2 or 24 hr, VER/CSA in wt or MCF-7/ADR, GEN/PRO in wt or MCF-7/VP; for Effect of acute pre-treatment on ATP-induced [Ca2+]i responses: 10 min pre-treatment, VER 25 uM, CSA 10 uM, GEN 100 uM, PRO 2 mM
Method: as §6, §7, §8
Human breast cancer cells loaded with Fura-2, were exposed to various agonists and [Ca^2+]1 responses from single cells were recorded.
as §11

MCF-7/AdVp cells = assay: Single-cell fura-2 [Ca2+]i imaging, MCF-7/Ad-Vp drug-resistant cells; type: cell-based, human; conditions: mean ± S.E.M.
Method: as §6, §7, §8, §9

MCF-7/C4 cells = assay: Single-cell fura-2 [Ca2+]i imaging, MCF-7/C4 drug-resistant cells; type: cell-based, human; conditions: for Fold [Ca2+]i increase evoked by agonist: mean ± S.E.M.
Source text: as §1, §2, §3

MCF-7/VP cells = assay: Single-cell fura-2 [Ca2+]i imaging, MCF-7/VP drug-resistant cells; type: cell-based, human; conditions: mean ± S.E.M.
Method: as §6, §7, §8, §9

MCF-7 wt cells = assay: Single-cell fura-2 [Ca2+]i imaging, MCF-7 wt drug-sensitive cells; type: cell-based, human; conditions: for Fold [Ca2+]i increase evoked by agonist: mean ± S.E.M.
Source text: More specifically, human breast cancer cell (“bc”) lines were obtained from the following sources: wild type (“wt”), estrogen receptor-positive MCF-7 cells were obtained from three different sources: American Type Culture Collection (ATCC, Manassas, Va.), the Lombardi Cancer Center, Georgetown University (Washington, D.C.) and the National Cancer Institute, NIH (Bethesda, Md.) and will be referred to as “wt”, DS MCF-7 throughout the paper. […] Five DR, MCF-7-derived clonal cell lines were used in this study.
as §6, §7, §8, §9, §10

MCF-7/Melph cells = assay: Single-cell fura-2 [Ca2+]i imaging, MCF-7/Melph drug-resistant cells; type: cell-based, human; conditions: mean ± S.E.M.
C6 DR clones A, B and E = assay: Single-cell fura-2 [Ca2+]i imaging, all C6 DR clones; type: cell-based, rat; conditions: all the clones
Method: (§4) C6 rat glioblastoma cell lines: Wild type cells and progressively doxorubicin-resistant clones were obtained from Dr. J. Robert, Institute Bergonie, Bordeaux, France. Clones were selected by exposure to increasing doses of doxorubicin: Clone A, 0.001 μg/ml; Clone B, 0.1 μg/ml, and Clone E, 0.5 μg/ml.
(§5) For data mentioned below, [Ca^2+]1 was measured by single-cell fura-2 excitation ratio imaging as previously described (DeBernardi, M. A. et al. Mol Pharmacol 43:451-58, 1993). Cells, grown on 25 mm round, 1 mm-thick glass coverslips were loaded with cell-permeable fura-2 AM (5 uM; Molecular Probes, Eugene, Oreg.) at 37° C. in growth medium for 30-60 min. […] Cells were imaged at room temperature in H/H buffer using an Attofluor RatioVision Digital Fluorescence Microscopy System (Atto Bioscience, Rockville, Md.) equipped with a Zeiss Axiovert 135 microscope and a F-Fluar 40×, 1.3 na, oil-immersion objective. Fura-2 was excited at 334 and 380 nm with the emission monitored at >510 nm; the 334/380 nm excitation ratio increases as a function of the [Ca^2+]1. […] For each coverslip, 10-99 cells were simultaneously imaged in a given microscopic field and [Ca^2+]1 was recorded from each individual cell in resting and stimulated conditions. […]

[2] = system: C6 rat glioblastoma clone E; assay: Single-cell fura-2 [Ca2+]i imaging, C6 clone E; type: cell-based
Method: as §4, §5

[3] = system: C6 rat glioblastoma clone A; assay: Single-cell fura-2 [Ca2+]i imaging, C6 clone A; type: cell-based
Method: as §4, §5

[4] = system: C6 rat glioblastoma clone B; assay: Single-cell fura-2 [Ca2+]i imaging, C6 clone B; type: cell-based
Method: as §4, §5

[5] = system: C6 rat astrocytoma clone E; conditions: cited from earlier work
[6] = system: C6 rat astrocytoma clone A; conditions: cited from earlier work
[7] = system: C6 rat astrocytoma clone B; conditions: cited from earlier work

Compound: Nc1ncnc2c1ncn2[C@@H]1O[C@H](COP(=O)(O)OP(=O)(O)OP(=O)(O)O)[C@@H](O)[C@H]1O [ATP]
- ATP-evoked [Ca2+]i, fold increase (MDA-MB-231 cells; EGTA-containing Buffer): 26.0 ± 8.1 fold
- ATP-evoked [Ca2+]i, fold increase (MDA-MB-231 cells; Standard Buffer): 16.5 ± 4.8 fold
- Fold [Ca2+]i increase evoked by agonist (MDA-MB-231 cells): 16.5 ± 4.8 fold
- ATP-evoked [Ca2+]i, fold increase (MCF-7/ADR cells; EGTA-containing Buffer): 2.4 ± 0.3 fold
- ATP-evoked [Ca2+]i, fold increase (MCF-7/ADR cells; Standard Buffer): 3.7 ± 0.7 fold
- Fold [Ca2+]i increase evoked by agonist (MCF-7/ADR cells): 2.9 ± 0.7 (n = 25) fold
- ATP-increased [Ca2+]i decay kinetics faster in absence than in presence of extracellular Ca2+ ([1]; MCF-7/ADR and MCF-7/C4 cells, EGTA vs standard buffer): ≥ 60%
- [Ca2+]i increase when applied following TG ([1]; MCF-7/C4, MCF-7/VP and MCF-7/Ad-Vp cells): modest and transient
- ATP-increased [Ca2+]i decay kinetics faster in Ca2+-free conditions ([1]; MCF-7 and MDA-MB-231 wt cells, EGTA vs standard buffer): ≤ 40%
- Ca2+ response evoked when applied following TG ([1]; MCF-7 wt and MCF-7/ADR cells): failed to evoke
- Fold [Ca2+]i increase evoked by agonist (MCF-7/AdVp cells): 4.5 ± 1.2 (n = 12) fold
- ATP-evoked [Ca2+]i, fold increase (MCF-7/C4 cells; EGTA-containing Buffer): 4.9 ± 0.4 fold
- ATP-evoked [Ca2+]i, fold increase (MCF-7/C4 cells; Standard Buffer): 5.8 ± 0.9 fold
- Fold [Ca2+]i increase evoked by agonist (MCF-7/C4 cells): 5.9 ± 0.8 (n = 12) fold
- Fold [Ca2+]i increase evoked by agonist (MCF-7/VP cells): 4.4 ± 1.2 (n = 11) fold
- ATP-evoked [Ca2+]i, fold increase (MCF-7 wt cells; EGTA-containing Buffer): 6.2 ± 2.1 fold
- ATP-evoked [Ca2+]i, fold increase (MCF-7 wt cells; Standard Buffer): 8.1 ± 2.4^b fold
- Fold [Ca2+]i increase evoked by agonist (MCF-7 wt cells): 7.9 ± 1.8^a (n = 67) fold
- Fold [Ca2+]i increase evoked by agonist (MCF-7/Melph cells): 16.0 ± 6.1 fold

Compound: O=c1c(-c2ccc(O)cc2)coc2cc(O)cc(O)c12 [GEN, genistein]
- Effect on decay kinetics of ATP-evoked response [1]: not affected
- Effect of acute pre-treatment on ATP-induced [Ca2+]i responses [1]: did not affect

Compound: CCCN(CCC)S(=O)(=O)c1ccc(C(=O)O)cc1 [PRO, probenecid]
- Effect on decay kinetics of ATP-evoked response [1]: not affected
- Effect of acute pre-treatment on ATP-induced [Ca2+]i responses [1]: did not affect

Compound: C/C=C(/C)C(=O)O[C@H]1C(C)=C2[C@H]([C@@H]1OC(=O)CCCCCCC)[C@@](C)(OC(C)=O)C[C@H](OC(=O)CCC)[C@@]1(O)[C@H]2OC(=O)[C@@]1(C)O [TG, thapsigargin]
- Fold [Ca2+]i increase evoked by agonist (MDA-MB-231 cells): 3.5 ± 0.9 (n = 3) fold
- Fold [Ca2+]i increase evoked by agonist (MCF-7/ADR cells): 2.7 ± 0.7 fold
- [Ca2+]i increase when applied after ATP ([1]; all DR clones and MDA-MB-231 wt, except MCF-7 wt and MCF-7/VP): able to increase
- Fold increase in [Ca2+]i ([1]; all clones, applied as the first drug): ~3 fold
- [Ca2+]i decay kinetics after stimulation, compared with wild type cells (C6 DR clones A, B and E): comparable or faster
- Fold [Ca2+]i increase evoked by agonist (MCF-7/AdVp cells): 2.4 ± 0.7 fold
- Induced [Ca2+]i increase compared with C6 parental cells [2]: much reduced response
- Induced [Ca2+]i increase compared with C6 parental cells [3]: greater
- Fold [Ca2+]i increase evoked by agonist (MCF-7/C4 cells): 3.4 ± 0.8 (n = 7) fold
- Fold [Ca2+]i increase evoked by agonist (MCF-7/VP cells): 1.5 ± 0.1 (n = 6) fold
- Fold [Ca2+]i increase evoked by agonist (MCF-7 wt cells): 2.8 ± 0.5 fold
- Induced [Ca2+]i increase compared with C6 parental cells [4]: much reduced response

Compound: O=c1ccn([C@@H]2O[C@H](COP(=O)(O)OP(=O)(O)OP(=O)(O)O)[C@@H](O)[C@H]2O)c(=O)[nH]1 [UTP]
- Fold [Ca2+]i increase evoked by agonist (MCF-7/ADR cells): 2.2 ± 0.3 fold
- Fold [Ca2+]i increase evoked by agonist (MCF-7/AdVp cells): 3.7 ± 0.8 fold
- Fold [Ca2+]i increase evoked by agonist (MCF-7/VP cells): 5.2 ± 1.9 fold
- Fold [Ca2+]i increase evoked by agonist (MCF-7 wt cells): 6.0 ± 1.3 fold
- Fold [Ca2+]i increase evoked by agonist (MCF-7/Melph cells): 3.7 ± 0.3 fold

Compound: COc1cccc2c1C(=O)c1c(O)c3c(c(O)c1C2=O)C[C@@](O)(C(=O)CO)C[C@@H]3O[C@H]1C[C@H](N)[C@H](O)[C@H](C)O1 [adriamycin]
- Fold resistance (dose to kill 50% of DR cells vs wt, DS cells) [5]: 400 fold
- Fold resistance (dose to kill 50% of DR cells vs wt, DS cells) [6]: 7 fold
- Fold resistance (dose to kill 50% of DR cells vs wt, DS cells) [7]: 33 fold

Compound: α-thrombin
- Fold [Ca2+]i increase evoked by agonist (MDA-MB-231 cells): 13.5 ± 5.1 fold
- Fold [Ca2+]i increase evoked by agonist (MCF-7/ADR cells): 2.8 ± 1.1 (n = 3) fold
- Fold [Ca2+]i increase evoked by agonist (MCF-7/C4 cells): 3.3 ± 0.3 (n = 3) fold
- Fold [Ca2+]i increase evoked by agonist (MCF-7 wt cells): 2.8 ± 0.1 (n = 3) fold
